Data as given in US8759011B2, “Assay system for determining binding of hydrophobic drugs” (Nederlandse Organisatie voor …, priority 2009, dated 2014).

Tested on: human plasma
Experiment: plasma binding by partition extraction in dimethylsiloxane-coated 96-well plates
Assay type: in vitro ADME
Details: for counts in the polymer coating: one plate
Protocol: 96-wells deepwell plates (lot 1450-401 Perkin-Elmer Lifesciences) were coated with dimethylsiloxane by making the solutions A-H here below in n-hexane. The used dimethylsiloxane (Silicone rubber, GE Silicones, Bergen op Zoom, The Netherlands) has a density of 1.06. Solution H contains 9.54 g dimethylsiloxane in 300 ml n-hexane.
From solutions A-H 100 μl is pipetted in row A-H of each plate. Plates were dried to air for minimally 18 hours (overnight).
To each dilution of plasma (solutions 1-12) an identical amount of the compound to be tested is added (about […]/200 μl solution). […] The solutions are incubated with the compound overnight at 4°.
The plasma solutions 1-12 are added to corresponding columns 1-12 of each plate (200 μl/well). Also 200 μl was added to a separate vessel to be able to correct for (plasma concentration dependent) solubilization. The next day the plates are emptied, washed once with aqua bidest and dried. When sufficient dry in all wells 200 μl counting solution (Optiphase Hisafe 2, Perkin Elmer Lifesciences) is added and the plates are covered. After incubation for minimally 4 hours under gently shaking the radioactivity in each plate is determined using liquid scintillation counting with a MicroBeta device (Perkin Elmer).
Additionally a total count was determined for each well. The total count is the count in the polymer coating+the count in the remaining fluid. The latter was determined by isolating 25 μl from solution in each well prior to emptying, and mixing with Optiphase (Perkin Elmer) followed by liquid scintillation counting.
1. For each datapoint for which the total count was determined, the recovery of total radioactivity was determined by comparing with the counts of the reference spiking solution. Cells with a total recovery <75% were excluded from further data analysis.
2. From all rows containing polymer, the a-specific binding, i.e. the corresponding counts from the row without polymer, was substracted.
3. Curve fitting was applied using the following formula for each cell:
Predicted counts in coating=Tc/((1/ffp+1/fp−1)×(fp×Vw)/Kpdms/Vp)), where
The above formula was fitted using ffp and Kpdms target parameters to be optimized using the least squares regression method over all wells that were included in the data analysis, by calculating the squared difference between the measured counts in the coating and the predicted counts in the coating. Results

Structure (SMILES): C=C1CC[C@H](O)C/C1=C/C=C1\CCC[C@]2(C)[C@@H]([C@H](C)CCCC(C)(C)O)CC[C@@H]12 [25-hydroxy vitamin D3]
- Free fraction ± s.d. (fitted free fraction for 100% plasma, ratio between free fraction and total concentration, average of six 96 well plates): 0.000502 ± 0.000060
- counts in the polymer coating (plasma 0 ml/ml, coating 0 nl): 1529
- counts in the polymer coating (plasma 0 ml/ml, coating 4.1 nl): 2095
- counts in the polymer coating (plasma 0 ml/ml, coating 10.2 nl): 3498
- counts in the polymer coating (plasma 0 ml/ml, coating 25.6 nl): 4260
- counts in the polymer coating (plasma 0 ml/ml, coating 64 nl): 5814
- counts in the polymer coating (plasma 0 ml/ml, coating 160 nl): 7292
- counts in the polymer coating (plasma 0 ml/ml, coating 400 nl): 8015
- counts in the polymer coating (plasma 0 ml/ml, coating 1000 nl): 8491
- counts in the polymer coating (plasma 0.0005 ml/ml, coating 0 nl): 639
- counts in the polymer coating (plasma 0.0005 ml/ml, coating 4.1 nl): 1753
- counts in the polymer coating (plasma 0.0005 ml/ml, coating 10.2 nl): 2581
- counts in the polymer coating (plasma 0.0005 ml/ml, coating 25.6 nl): 4428
- counts in the polymer coating (plasma 0.0005 ml/ml, coating 64 nl): 8145
- counts in the polymer coating (plasma 0.0005 ml/ml, coating 160 nl): 12361
- counts in the polymer coating (plasma 0.0005 ml/ml, coating 400 nl): 15727
- counts in the polymer coating (plasma 0.0005 ml/ml, coating 1000 nl): 16960
- counts in the polymer coating (plasma 0.0008 ml/ml, coating 0 nl): 495
- counts in the polymer coating (plasma 0.0008 ml/ml, coating 4.1 nl): 1176
- counts in the polymer coating (plasma 0.0008 ml/ml, coating 10.2 nl): 1649
- counts in the polymer coating (plasma 0.0008 ml/ml, coating 25.6 nl): 3019
- counts in the polymer coating (plasma 0.0008 ml/ml, coating 64 nl): 6029
- counts in the polymer coating (plasma 0.0008 ml/ml, coating 160 nl): 10164
- counts in the polymer coating (plasma 0.0008 ml/ml, coating 400 nl): 13748
- counts in the polymer coating (plasma 0.0008 ml/ml, coating 1000 nl): 15479
- counts in the polymer coating (plasma 0.001 ml/ml, coating 0 nl): 419
- counts in the polymer coating (plasma 0.001 ml/ml, coating 4.1 nl): 972
- counts in the polymer coating (plasma 0.001 ml/ml, coating 10.2 nl): 1545
- counts in the polymer coating (plasma 0.001 ml/ml, coating 25.6 nl): 2658
- counts in the polymer coating (plasma 0.001 ml/ml, coating 64 nl): 5501
- counts in the polymer coating (plasma 0.001 ml/ml, coating 160 nl): 9700
- counts in the polymer coating (plasma 0.001 ml/ml, coating 400 nl): 13183
- counts in the polymer coating (plasma 0.001 ml/ml, coating 1000 nl): 15022
- counts in the polymer coating (plasma 0.003 ml/ml, coating 0 nl): 151
- counts in the polymer coating (plasma 0.003 ml/ml, coating 4.1 nl): 399
- counts in the polymer coating (plasma 0.003 ml/ml, coating 10.2 nl): 603
- counts in the polymer coating (plasma 0.003 ml/ml, coating 25.6 nl): 1258
- counts in the polymer coating (plasma 0.003 ml/ml, coating 64 nl): 2547
- counts in the polymer coating (plasma 0.003 ml/ml, coating 160 nl): 5687
- counts in the polymer coating (plasma 0.003 ml/ml, coating 400 nl): 9284
- counts in the polymer coating (plasma 0.003 ml/ml, coating 1000 nl): 11307
- counts in the polymer coating (plasma 0.005 ml/ml, coating 0 nl): 109
- counts in the polymer coating (plasma 0.005 ml/ml, coating 4.1 nl): 257
- counts in the polymer coating (plasma 0.005 ml/ml, coating 10.2 nl): 428
- counts in the polymer coating (plasma 0.005 ml/ml, coating 25.6 nl): 866
- counts in the polymer coating (plasma 0.005 ml/ml, coating 64 nl): 1719
- counts in the polymer coating (plasma 0.005 ml/ml, coating 160 nl): 3804
- counts in the polymer coating (plasma 0.005 ml/ml, coating 400 nl): 7410
- counts in the polymer coating (plasma 0.005 ml/ml, coating 1000 nl): 10375
- counts in the polymer coating (plasma 0.008 ml/ml, coating 0 nl): 95
- counts in the polymer coating (plasma 0.008 ml/ml, coating 4.1 nl): 212
- counts in the polymer coating (plasma 0.008 ml/ml, coating 10.2 nl): 372
- counts in the polymer coating (plasma 0.008 ml/ml, coating 25.6 nl): 686
- counts in the polymer coating (plasma 0.008 ml/ml, coating 64 nl): 1331
- counts in the polymer coating (plasma 0.008 ml/ml, coating 160 nl): 3035
- counts in the polymer coating (plasma 0.008 ml/ml, coating 400 nl): 5863
- counts in the polymer coating (plasma 0.008 ml/ml, coating 1000 nl): 9044
- counts in the polymer coating (plasma 0.01 ml/ml, coating 0 nl): 90
- counts in the polymer coating (plasma 0.01 ml/ml, coating 4.1 nl): 169
- counts in the polymer coating (plasma 0.01 ml/ml, coating 10.2 nl): 293
- counts in the polymer coating (plasma 0.01 ml/ml, coating 25.6 nl): 523
- counts in the polymer coating (plasma 0.01 ml/ml, coating 64 nl): 1054
- counts in the polymer coating (plasma 0.01 ml/ml, coating 160 nl): 2408
- counts in the polymer coating (plasma 0.01 ml/ml, coating 400 nl): 5093
- counts in the polymer coating (plasma 0.01 ml/ml, coating 1000 nl): 8309
- counts in the polymer coating (plasma 0.02 ml/ml, coating 0 nl): 82
- counts in the polymer coating (plasma 0.02 ml/ml, coating 4.1 nl): 98
- counts in the polymer coating (plasma 0.02 ml/ml, coating 10.2 nl): 182
- counts in the polymer coating (plasma 0.02 ml/ml, coating 25.6 nl): 278
- counts in the polymer coating (plasma 0.02 ml/ml, coating 64 nl): 641
- counts in the polymer coating (plasma 0.02 ml/ml, coating 160 nl): 1394
- counts in the polymer coating (plasma 0.02 ml/ml, coating 400 nl): 3130
- counts in the polymer coating (plasma 0.02 ml/ml, coating 1000 nl): 5582
- counts in the polymer coating (plasma 0.03 ml/ml, coating 0 nl): 62
- counts in the polymer coating (plasma 0.03 ml/ml, coating 4.1 nl): 75
- counts in the polymer coating (plasma 0.03 ml/ml, coating 10.2 nl): 130
- counts in the polymer coating (plasma 0.03 ml/ml, coating 25.6 nl): 237
- counts in the polymer coating (plasma 0.03 ml/ml, coating 64 nl): 409
- counts in the polymer coating (plasma 0.03 ml/ml, coating 160 nl): 988
- counts in the polymer coating (plasma 0.03 ml/ml, coating 400 nl): 2209
- counts in the polymer coating (plasma 0.03 ml/ml, coating 1000 nl): 4228
- counts in the polymer coating (plasma 0.04 ml/ml, coating 0 nl): 55
- counts in the polymer coating (plasma 0.04 ml/ml, coating 4.1 nl): 68
- counts in the polymer coating (plasma 0.04 ml/ml, coating 10.2 nl): 87
- counts in the polymer coating (plasma 0.04 ml/ml, coating 25.6 nl): 153
- counts in the polymer coating (plasma 0.04 ml/ml, coating 64 nl): 342
- counts in the polymer coating (plasma 0.04 ml/ml, coating 160 nl): 722
- counts in the polymer coating (plasma 0.04 ml/ml, coating 400 nl): 1681
- counts in the polymer coating (plasma 0.04 ml/ml, coating 1000 nl): 3295
- counts in the polymer coating (plasma 0.05 ml/ml, coating 0 nl): 47
- counts in the polymer coating (plasma 0.05 ml/ml, coating 4.1 nl): 48
- counts in the polymer coating (plasma 0.05 ml/ml, coating 10.2 nl): 70
- counts in the polymer coating (plasma 0.05 ml/ml, coating 25.6 nl): 153
- counts in the polymer coating (plasma 0.05 ml/ml, coating 64 nl): 296
- counts in the polymer coating (plasma 0.05 ml/ml, coating 160 nl): 588
- counts in the polymer coating (plasma 0.05 ml/ml, coating 400 nl): 1354
- counts in the polymer coating (plasma 0.05 ml/ml, coating 1000 nl): 2501
